Test results taken from patent publication US11566028B2, “Bicyclic heterocycles as FGFR inhibitors” (Incyte Corporation, priority 2019, dated 2023).
pIC50: −log10 of the molar value. Like-named read-outs stand apart in the source and are kept apart here.

Tests used:
Format in all cases: biochemical
[1] = molecular target: wild-type un-phosphorylated FGFR3 protein (Homo sapiens (Human), UniProt P22607); assay: FGFR Enzymatic Assay (FRET peptide phosphorylation), FGFR3; conditions: pre-incubated for 4 hours
FGFR1 = FGFR1 (Homo sapiens (Human), UniProt P11362); assay: FGFR Enzymatic Assay (FRET peptide phosphorylation), FGFR1; conditions: pre-incubated for 4 hours
FGFR2 = FGFR2 (Homo sapiens (Human), UniProt P21802); assay: FGFR Enzymatic Assay (FRET peptide phosphorylation), FGFR2
FGFR4 = FGFR4 (Homo sapiens (Human), UniProt P22455); assay: FGFR Enzymatic Assay (FRET peptide phosphorylation), FGFR4
Chain of FGFR4 (P22455 22-802): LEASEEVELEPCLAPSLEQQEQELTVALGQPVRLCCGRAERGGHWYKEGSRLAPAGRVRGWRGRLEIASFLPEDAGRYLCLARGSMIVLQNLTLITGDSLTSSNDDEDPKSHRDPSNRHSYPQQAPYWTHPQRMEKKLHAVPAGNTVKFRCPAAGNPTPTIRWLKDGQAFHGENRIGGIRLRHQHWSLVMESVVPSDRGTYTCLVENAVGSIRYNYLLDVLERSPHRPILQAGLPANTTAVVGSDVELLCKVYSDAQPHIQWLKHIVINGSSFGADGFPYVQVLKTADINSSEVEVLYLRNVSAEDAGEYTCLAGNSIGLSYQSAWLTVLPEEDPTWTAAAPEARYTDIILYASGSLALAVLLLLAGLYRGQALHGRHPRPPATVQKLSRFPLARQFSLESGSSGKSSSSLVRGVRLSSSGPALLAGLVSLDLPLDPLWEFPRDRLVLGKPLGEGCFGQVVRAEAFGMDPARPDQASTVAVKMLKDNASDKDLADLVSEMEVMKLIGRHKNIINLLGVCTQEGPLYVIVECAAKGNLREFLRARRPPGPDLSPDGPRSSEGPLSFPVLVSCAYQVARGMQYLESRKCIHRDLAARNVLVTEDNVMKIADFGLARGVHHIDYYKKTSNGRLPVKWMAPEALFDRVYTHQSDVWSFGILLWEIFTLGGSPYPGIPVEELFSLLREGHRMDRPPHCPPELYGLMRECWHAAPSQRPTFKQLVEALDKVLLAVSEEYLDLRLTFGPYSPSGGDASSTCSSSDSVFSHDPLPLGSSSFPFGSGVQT

Chain of FGFR2 (P21802 22-821): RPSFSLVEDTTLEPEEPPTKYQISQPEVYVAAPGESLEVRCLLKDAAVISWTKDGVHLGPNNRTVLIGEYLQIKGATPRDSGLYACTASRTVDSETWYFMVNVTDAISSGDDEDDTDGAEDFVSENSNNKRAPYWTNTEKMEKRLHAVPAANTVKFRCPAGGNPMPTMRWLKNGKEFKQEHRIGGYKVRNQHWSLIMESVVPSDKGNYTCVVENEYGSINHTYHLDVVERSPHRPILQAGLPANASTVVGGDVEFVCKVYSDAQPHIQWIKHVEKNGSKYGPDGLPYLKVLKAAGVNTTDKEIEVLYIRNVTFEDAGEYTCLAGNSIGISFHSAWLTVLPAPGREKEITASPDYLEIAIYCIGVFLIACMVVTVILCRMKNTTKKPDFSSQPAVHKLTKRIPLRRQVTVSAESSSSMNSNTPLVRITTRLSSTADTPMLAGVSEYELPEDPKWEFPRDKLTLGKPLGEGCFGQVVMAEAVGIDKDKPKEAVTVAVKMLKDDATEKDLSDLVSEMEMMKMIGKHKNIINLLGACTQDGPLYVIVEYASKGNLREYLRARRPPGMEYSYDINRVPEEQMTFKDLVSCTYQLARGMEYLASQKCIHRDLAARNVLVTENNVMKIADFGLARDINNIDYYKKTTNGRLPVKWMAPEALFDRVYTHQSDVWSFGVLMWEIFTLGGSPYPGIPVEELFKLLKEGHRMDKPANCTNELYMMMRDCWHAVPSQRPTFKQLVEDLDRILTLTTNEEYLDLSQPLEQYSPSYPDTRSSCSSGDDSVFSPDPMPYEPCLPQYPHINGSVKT
Chain of wild-type un-phosphorylated FGFR3 protein (P22607 23-806): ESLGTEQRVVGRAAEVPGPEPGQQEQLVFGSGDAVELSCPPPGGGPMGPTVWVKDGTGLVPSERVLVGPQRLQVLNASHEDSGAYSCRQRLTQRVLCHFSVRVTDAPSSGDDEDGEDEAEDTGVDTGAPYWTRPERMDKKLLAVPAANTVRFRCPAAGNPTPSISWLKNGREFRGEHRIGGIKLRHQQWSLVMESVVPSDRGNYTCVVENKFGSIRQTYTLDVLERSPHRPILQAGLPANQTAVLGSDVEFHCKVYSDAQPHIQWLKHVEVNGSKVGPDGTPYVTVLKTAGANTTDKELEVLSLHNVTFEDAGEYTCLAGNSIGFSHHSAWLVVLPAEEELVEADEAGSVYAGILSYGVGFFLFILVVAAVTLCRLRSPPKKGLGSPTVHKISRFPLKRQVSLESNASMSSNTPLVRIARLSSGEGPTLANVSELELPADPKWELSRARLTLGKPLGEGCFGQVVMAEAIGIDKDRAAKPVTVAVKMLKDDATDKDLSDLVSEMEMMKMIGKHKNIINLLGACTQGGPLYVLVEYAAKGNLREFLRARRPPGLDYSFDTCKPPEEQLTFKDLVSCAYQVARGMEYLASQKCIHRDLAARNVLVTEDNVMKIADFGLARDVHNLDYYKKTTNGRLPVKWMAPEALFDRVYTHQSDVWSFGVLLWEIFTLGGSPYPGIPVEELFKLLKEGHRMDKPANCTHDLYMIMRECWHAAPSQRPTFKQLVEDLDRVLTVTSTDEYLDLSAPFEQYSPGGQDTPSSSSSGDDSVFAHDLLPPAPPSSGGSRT
Chain of FGFR1 (P11362 22-822): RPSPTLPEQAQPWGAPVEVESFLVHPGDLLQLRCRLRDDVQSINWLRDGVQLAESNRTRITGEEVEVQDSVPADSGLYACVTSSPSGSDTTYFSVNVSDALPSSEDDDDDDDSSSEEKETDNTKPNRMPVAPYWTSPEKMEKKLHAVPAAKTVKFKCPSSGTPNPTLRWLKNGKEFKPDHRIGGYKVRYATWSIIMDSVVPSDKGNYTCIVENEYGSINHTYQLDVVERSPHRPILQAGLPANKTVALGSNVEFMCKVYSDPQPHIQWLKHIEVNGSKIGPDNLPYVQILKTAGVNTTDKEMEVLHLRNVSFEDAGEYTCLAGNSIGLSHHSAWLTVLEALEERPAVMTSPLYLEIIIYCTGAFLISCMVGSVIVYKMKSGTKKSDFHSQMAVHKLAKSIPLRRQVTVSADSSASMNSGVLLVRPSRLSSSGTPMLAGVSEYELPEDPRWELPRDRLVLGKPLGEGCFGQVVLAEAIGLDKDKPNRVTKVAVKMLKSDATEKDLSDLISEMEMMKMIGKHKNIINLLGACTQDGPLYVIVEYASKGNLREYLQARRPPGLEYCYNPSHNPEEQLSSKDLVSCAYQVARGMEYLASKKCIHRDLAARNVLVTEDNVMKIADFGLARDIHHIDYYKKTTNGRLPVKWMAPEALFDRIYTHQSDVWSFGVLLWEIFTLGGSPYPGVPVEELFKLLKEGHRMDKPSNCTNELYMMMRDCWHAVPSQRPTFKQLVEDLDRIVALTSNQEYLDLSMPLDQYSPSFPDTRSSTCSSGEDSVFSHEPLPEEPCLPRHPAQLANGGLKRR

Compound | pIC50 [1] | pIC50 (FGFR1) | pIC50 (FGFR2; pre-incubated for 4 hours) | pIC50 (FGFR4; pre-incubated for 4 hours) | pIC50 (FGFR2) | pIC50 (FGFR4)
CNC(=O)c1cc(C)c(F)c(-c2cnn3cc(-c4cnc(C)o4)c(N[C@H]4CCOC4)nc23)c1 [Example 42, (S)-4-Fluoro-N,3-dimethyl-5-(6-(2-methyloxazol-5-y1)-5-((tetrahydrofuran-3-yl)amino)pyrazolo[1,5-a]pyrimidin-3-yl)benzamide] | > 8.00 | 7.52 to 8.00 | – | – | > 8.00 | 6.70 to 7.52
CNC(=O)c1cc(F)c(F)c(-c2cnn3cc(-c4cnn(CCN5CCOCC5)c4)c(N[C@H]4CCOC4)nc23)c1 [Example 55, (S)-3,4-Difluoro-N-methy1-5-(6-(1-(2-morpholinoethyl)-1H-pyrazol-4-y1)-5-((tetrahydrofuran-3-yl)amino)pyrazolo[1,5-a]pyrimidin-3-yl)benzamide] | > 8.00 | > 8.00 | – | – | > 8.00 | 6.70 to 7.52
CNC(=O)c1cc(C)c(F)c(-c2cnn3cc(-c4cnn(C5CCOC5)c4)c(N[C@H]4CCOC4)nc23)c1 (stereo partly drawn) [Example 41, 4-Fluoro-N,3-dimethyl-5-(6-(1-(tetrahydrofuran-3-yl)-1H-pyrazol-4-y1)-5-(((S)-tetrahydrofuran-3-yl)amino)pyrazolo[1,5-a]pyrimidin-3-yl)benzamide] | > 8.00 | 6.70 to 7.52 | – | – | > 8.00 | 6.70 to 7.52
CNC(=O)c1cc(F)c(F)c(-c2cnn3cc(-c4cnc(C)o4)c(N[C@H]4CCOC4)nc23)c1 [Example 58, (S)-3,4-Difluoro-N-methyl-5-(6-(2-methyloxazol-5-y1)-5-((tetrahydrofuran-3-yl)amino)pyrazolo[1,5-a]pyrimidin-3-yl)benzamide] | > 8.00 | > 8.00 | – | – | > 8.00 | 6.70 to 7.52
CCn1ccc(-c2cn3ncc(-c4cc(C(=O)NC)cc(C)c4F)c3nc2N[C@H]2CCOC2)n1 [Example 43, (S)-3-(6-(1-Ethy1-1H-pyrazol-3-y1)-5-((tetrahydrofuran-3-yl)amino)pyrazolo[1,5-a]pyrimidin-3-y1)-4-fluoro-N,5-dimethylbenzamide] | > 8.00 | 7.52 to 8.00 | – | – | > 8.00 | 6.70 to 7.52
CNC(=O)c1cc(C)c(F)c(-c2cnn3cc(-c4cnn(CC(C)(C)O)c4)c(N[C@H]4CCOC4)nc23)c1 [Example 40, (S)-4-Fluoro-3-(6-(1-(2-hydroxy-2-methylpropy1)-1H-pyrazol-4-y1)-5-((tetrahydrofuran-3-yl)amino)pyrazolo[1,5-a]pyrimidin-3-y1)-N,5-dimethylbenzamide] | > 8.00 | 7.52 to 8.00 | – | – | > 8.00 | 6.70 to 7.52
CCn1cc(-c2cn3ncc(-c4cc(C(=O)NC)cc(F)c4F)c3nc2N[C@H]2CCOC2)cn1 [Example 53, (S)-3-(6-(1-Ethy1-1H-pyrazol-4-y1)-5-((tetrahydrofuran-3-yl)amino)pyrazolo[1,5-a]pyrimidin-3-y1)-4,5-difluoro-N-methylbenzamide] | > 8.00 | 7.52 to 8.00 | – | – | > 8.00 | < 6.70
CC(C)NC(=O)c1cncc(-c2cnn3cc(-c4ccn(C)n4)c(N[C@H]4CCOC4)nc23)c1 [Example 62, (S)—N-Isopropyl-5-(6-(1-methyl-1H-pyrazol-3-yl)-5-((tetrahydrofuran-3-yl)amino)pyrazolo[1,5-a]pyrimidin-3-yl)nicotinamide] | – | 6.70 to 7.52 | 7.52 to 8.00 | ≤ 6.70 | – | –
CCNC(=O)c1cncc(-c2cnn3cc(-c4ccn(C)n4)c(N[C@H]4CCOC4)nc23)c1 [Example 61, (S)—N-Ethyl-5-(6-(1-methyl-1H-pyrazol-3-yl)-5-((tetrahydrofuran-3-yl)amino)pyrazolo[1,5-a]pyrimidin-3-yl)nicotinamide] | > 8.00 | 6.70 to 7.52 | > 8.00 | 6.70 to 7.52 | – | –

Second part, led by results:

pIC50 [1] | pIC50 (FGFR1) | pIC50 (FGFR2; pre-incubated for 4 hours) | pIC50 (FGFR4; pre-incubated for 4 hours) | Compound | pIC50 (FGFR2) | pIC50 (FGFR4)
> 8.00 | 7.52 to 8.00 | > 8.00 | 6.70 to 7.52 | Cn1cc(-c2cn3ncc(-c4cccc5[nH]ncc45)c3nc2O[C@H]2CCOC2)cn1 [Example 33, (S)-3-(1H-Indazol-4-yl)-6-(1-methyl-1H-pyrazol-4-yl)-5-((tetrahydrofuran-3-yl)oxy)pyrazolo[1,5-a]pyrimidine] | – | –
> 8.00 | 7.52 to 8.00 | > 8.00 | ≤ 6.70 | Cn1cc(-c2cn3ncc(-c4cccc(-c5cc[nH]n5)c4)c3nc2O[C@H]2CCOC2)cn1 [Example 51, (S)-3-(3-(1H-Pyrazol-3-yl)phenyl)-6-(1-methyl-1H-pyrazol-4-yl)-5-((tetrahydrofuran-3-yl)oxy)pyrazolo[1,5-a]pyrimidine] | – | –
> 8.00 | > 8.00 | > 8.00 | 7.52 to 8.00 | CNC(=O)c1cncc(-c2cnn3cc(-c4ccn(C)n4)c(N[C@H]4CCOC4)nc23)c1 [Example 59, (S)—N-Methyl-5-(6-(1-methyl-1H-pyrazol-3-yl)-5-((tetrahydrofuran-3-yl)amino)pyrazolo[1,5-a]pyrimidin-3-yl)nicotinamide] | – | –
> 8.00 | 6.70 to 7.52 | > 8.00 | 6.70 to 7.52 | CNC(=O)c1cc(C)c(F)c(-c2cnn3cc(-c4cnn(C)c4)c(OC4CCOC4)nc23)c1 (racemic) [Example 4, 4-Fluoro-N,3-dimethyl-5-(6-(1-methyl-1H-pyrazol-4-yl)-5-((tetrahydrofuran-3-yl)oxy)pyrazolo[1,5-a]pyrimidin-3-yl)benzamide] | – | –
> 8.00 | 6.70 to 7.52 | > 8.00 | 6.70 to 7.52 | [2H]C([2H])([2H])NC(=O)c1cc(-c2cnn3cc(-c4ccc(CN5C[C@H]6C[C@@H]5CO6)nc4)c(O[C@H]4CCOC4)nc23)c(F)c(C(F)F)c1 [Example 66, 3-(6-(6-(((1R,4R)-2-Oxa-5-azabicyclo[2.2.1]heptan-5-yl)methyl)pyridin-3-yl)-5-(((S)-tetrahydrofuran-3-yl)oxy)pyrazolo[1,5-a]pyrimidin-3-yl)-5-(difluoromethyl)-4-fluoro-N-(methyl-d3)benzamide] | – | –
> 8.00 | 6.70 to 7.52 | > 8.00 | ≤ 6.70 | CNC(=O)c1cncc(-c2cnn3cc(-c4cnn(C)n4)c(N[C@H]4CCOC4)nc23)c1 [Example 60, (S)—N-Methyl-5-(6-(2-methyl-2H-1,2,3-triazol-4-yl)-5-((tetrahydrofuran-3-yl)amino)pyrazolo[1,5-a]pyrimidin-3-yl)nicotinamide] | – | –
> 8.00 | 7.52 to 8.00 | > 8.00 | ≤ 6.70 | CNC(=O)c1cc(C)c(F)c(-c2cnn3cc(-c4cnn(C5CN(C)C5)c4)c(N[C@H]4CCOC4)nc23)c1 [Example 35, (S)-4-Fluoro-N,3-dimethyl-5-(6-(1-(1-methylazetidin-3-yl)-1H-pyrazol-4-yl)-5-((tetrahydrofuran-3-yl)amino)pyrazolo[1,5-a]pyrimidin-3-yl)benzamide] | – | –
> 8.00 | > 8.00 | > 8.00 | 7.52 to 8.00 | [2H]C([2H])([2H])NC(=O)c1cc(C)c(F)c(-c2cnn3cc(-c4cnn([C@@H]5CCN(C)C[C@H]5F)c4)c(O[C@H]4CCOC4)nc23)c1 [Example 64, 4-Fluoro-3-(6-(1-((3R,4R)-3-fluoro-1-methylpiperidin-4-yl)-1H-pyrazol-4-yl)-5-(((S)-tetrahydrofuran-3-yl)oxy)pyrazolo[1,5-a]pyrimidin-3-yl)-5-methyl-N-(methyl-d3)benzamide] | – | –
> 8.00 | 7.52 to 8.00 | > 8.00 | 6.70 to 7.52 | CNC(=O)c1cc(C)c(F)c(-c2cnn3cc(-c4cnn([C@@H]5CCN(C)C[C@H]5F)c4)c(N[C@H]4CCOC4)nc23)c1 [Example 65, 4-Fluoro-3-(6-(1-((3R,4R)-3-fluoro-1-methylpiperidin-4-yl)-1H-pyrazol-4-yl)-5-(((S)-tetrahydrofuran-3-yl)amino)pyrazolo[1,5-a]pyrimidin-3-yl)-N,5-dimethylbenzamide] | – | –
> 8.00 | 7.52 to 8.00 | > 8.00 | 6.70 to 7.52 | CNC(=O)c1cc(C)c(F)c(-c2cnn3cc(-c4cnn(C5CCN(C)CC5)c4)c(N[C@H]4CCOC4)nc23)c1 [Example 34, (S)-4-Fluoro-N,3-dimethyl-5-(6-(1-(1-methylpiperidin-4-yl)-1H-pyrazol-4-yl)-5-((tetrahydrofuran-3-yl)amino)pyrazolo[1,5-a]pyrimidin-3-yl)benzamide] | – | –
